Test results as given in the NIST ThermoML archive (doi:10.1016/j.fluid.2008.04.003).
Numbers after ± are expanded uncertainties.

Experiment: wn = mass fraction of the nth substance listed
Conditions: 101 kPa, Liquid; for viscosity: Capillary tube (Ostwald / Ubbelohde) method

NC(CO)(CO)CO [2-amino-2-(hydroxymethyl)-1,3-propanediol] + O
Conditions | mass density, 283.15 K [kg/m3] | mass density, 288.15 K [kg/m3] | mass density, 293.15 K [kg/m3] | mass density, 298.15 K [kg/m3] | mass density, 303.15 K [kg/m3] | mass density, 308.15 K [kg/m3] | mass density, 313.15 K [kg/m3] | viscosity, 283.15 K [mPa·s] | viscosity, 298.15 K [mPa·s] | viscosity, 313.15 K [mPa·s]
w1 = 0.0015 | 1000.5 ± 1.1 | 999.9 ± 1.1 | 999.1 ± 1 | 997.9 ± 1.1 | 996.6 ± 1.1 | 995 ± 1.2 | 993.1 ± 1.2 | 1.315 ± 0.012 | 0.905 ± 0.009 | 0.656 ± 0.007
w1 = 0.005 | 1001.6 ± 1.1 | 1001.3 ± 1.1 | 1000.5 ± 1 | 999.4 ± 1.1 | 997.8 ± 1.1 | 996 ± 1.2 | 993.6 ± 1.2 | 1.354 ± 0.012 | 0.913 ± 0.009 | 0.662 ± 0.007
w1 = 0.01 | 1002.4 ± 1.1 | 1001.8 ± 1.1 | 1001 ± 1 | 1000 ± 1.1 | 998.7 ± 1.1 | 997.2 ± 1.2 | 995.4 ± 1.2 | 1.36 ± 0.012 | 0.917 ± 0.009 | 0.669 ± 0.007
w1 = 0.025 | 1006.8 ± 1.1 | 1006 ± 1.1 | 1005.1 ± 1.1 | 1003.8 ± 1.1 | 1002.3 ± 1.1 | 1000.7 ± 1.2 | 998.7 ± 1.2 | 1.422 ± 0.013 | 0.959 ± 0.009 | 0.696 ± 0.007
w1 = 0.1 | 1026.2 ± 1.1 | 1025 ± 1.1 | 1023.8 ± 1.1 | 1022.4 ± 1.1 | 1020.8 ± 1.1 | 1019.4 ± 1.2 | 1017.7 ± 1.2 | 1.802 ± 0.016 | 1.173 ± 0.011 | 0.857 ± 0.008
